Data: patent publication US20080139546A1, “Tetrahydroquinoline, indoline, and related aniline derivatives of heterocycle-fused benzodioxan methylamines” (Wyeth, priority 2006, published 2008)

Experiments:
[1] = target: T1, Human 5-HT Transporter (Homo sapiens, UniProt P31645); experiment: Inhibition of 3H-5-HT uptake by Jar cells possessing the human 5-HT transporter; assay type: cell-based; settings: Jar cells treated with staurosporine, read-out: 5HT Uptake h5HT-T IC50 (nM) (Example 20)
T1 construct: endogenous in cells; host or cells: Jar cells (human carcinoma cell line), treated with staurosporine
T1 sequence (P31645 whole entry): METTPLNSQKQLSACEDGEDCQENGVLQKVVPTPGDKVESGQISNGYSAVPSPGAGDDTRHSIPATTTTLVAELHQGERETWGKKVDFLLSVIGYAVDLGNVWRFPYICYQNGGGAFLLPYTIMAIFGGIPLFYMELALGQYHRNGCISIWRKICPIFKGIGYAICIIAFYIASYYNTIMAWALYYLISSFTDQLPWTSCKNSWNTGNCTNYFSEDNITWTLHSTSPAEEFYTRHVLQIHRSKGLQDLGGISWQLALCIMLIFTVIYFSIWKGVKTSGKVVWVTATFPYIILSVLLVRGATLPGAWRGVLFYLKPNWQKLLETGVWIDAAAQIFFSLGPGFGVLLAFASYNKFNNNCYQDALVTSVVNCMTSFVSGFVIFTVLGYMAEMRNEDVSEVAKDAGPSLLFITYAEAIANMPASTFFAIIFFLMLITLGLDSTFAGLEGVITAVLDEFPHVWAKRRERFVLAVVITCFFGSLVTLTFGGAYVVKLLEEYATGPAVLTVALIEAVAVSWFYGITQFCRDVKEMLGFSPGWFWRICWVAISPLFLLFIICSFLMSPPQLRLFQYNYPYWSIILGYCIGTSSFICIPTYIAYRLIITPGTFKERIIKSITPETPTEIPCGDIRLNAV
Description: [Staurosporine greatly increases the expression of the 5-HT-Transporter.] On the day of assay, vehicle, excess of fluoxetine, or test compound was added to various wells on the plate. ^3H-5-HT was then aliquoted into all wells and the samples were incubated at 37° C. for 5 minutes. The wells were then washed with ice cold 50 mM Tris HCl (pH 7.4) buffer and aspirated to remove free ^3H-5-HT. 25 μL 0.25 M NaOH was then added to each well to lyse the cells and 75 μL scintillation cocktail (Microscint™ 20) was added prior to quantitation on a Packard TopCount® machine. Tubes with vehicle represent total possible uptake, radioactivity counted in tubes with excess fluoxetine represent nonspecific binding/uptake and were subtracted from the total possible uptake to give total possible specific uptake. This nonspecific binding (usual low in number) was then subtracted from the counts obtained in wells with various test compounds (or different concentrations of a test compound) resulting in uptake in the presence of drug. Specific uptake was then expressed as a percent of control values and was analyzed using nonlinear regression analysis (Prizm) to determine IC50 values. If the compound was active in inhibiting 5-HT uptake, its counts will be close to that obtained with fluoxetine.
This blockade, in vivo, would be expected to result in an increase in extracellular 5-HT concentrations.

[2] = target: T2, Human 5-HT1A Receptor (Homo sapiens, UniProt P08908); experiment: 8-OH-DPAT binding, human 5-HT1A receptor cell line (displacement of [3H]-OHDPAT, stably transfected CHO cells); settings: [3H]-OHDPAT 1.5 nM, read-out: h5HT1A Affinity Ki (nM) (Example 17)
T2 construct: expressed in transfected cells; host or cells: CHO cells (Chinese hamster ovary), stably transfected
T2 sequence (P08908 1-422): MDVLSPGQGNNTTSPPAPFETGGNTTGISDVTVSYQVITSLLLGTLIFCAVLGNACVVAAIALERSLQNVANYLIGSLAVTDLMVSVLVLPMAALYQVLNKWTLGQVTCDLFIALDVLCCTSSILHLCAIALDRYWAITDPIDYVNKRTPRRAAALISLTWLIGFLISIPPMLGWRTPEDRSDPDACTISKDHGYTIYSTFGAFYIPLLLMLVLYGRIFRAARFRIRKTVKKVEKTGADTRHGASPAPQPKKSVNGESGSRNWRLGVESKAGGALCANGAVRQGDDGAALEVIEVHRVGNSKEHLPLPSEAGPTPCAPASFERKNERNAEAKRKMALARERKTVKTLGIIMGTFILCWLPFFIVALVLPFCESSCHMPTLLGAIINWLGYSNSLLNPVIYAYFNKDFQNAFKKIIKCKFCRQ
Description: Affinity for the serotonin 5-HT1A receptor was established by testing each compound's ability to displace [^3H]-OHDPAT (dipropylaminotetralin) from the 5-HT1A serotonin receptor following a modification of the procedure of Hall et al., J. Neurochem. 44:1685-1696 (1985). Stably transfected Chinese hamster ovary (CHO) cells were plated and grown in Dulbecco's Modified Eagle's Medium (DMEM) containing 10% heat inactivated fetal bovine serum (FBS) and non-essential amino acids. Cells were scraped off the plate, transferred to centrifuge tubes, and washed twice by centrifugation (2000 rpm for 10 minutes at 4° C.) in buffer (50 mM Tris, pH 7.5). The resulting pellets were aliquoted and stored at −80° C. On the day of assay, the cells were thawed on ice, and re-suspended in buffer. The binding assay was performed in a 96-well microtiter plate in a total volume of about 250 μL. Non-specific binding was determined in the presence of 10 μM 5-HT; the final radio ligand concentration was 1.5 nM. Following a 30 minute incubation at room temperature, the reaction was terminated by the addition of ice cold buffer and rapid filtration through a GF/B filter presoaked for 30 minutes in 0.5% polyethyleneimine (PEI). Compounds were initially tested in a single point assay to determine percent inhibition at 1 μM, 0.1 μM, and 0.01 μM. Subsequently, Ki values were determined for compounds defined to be active. Percent inhibition Ki was determined by RFComp (Lundon Software, Chagrin Falls, Ohio), with serotonin and 8-OH-DPAT as the reference compounds.
High affinity for the receptor is evidence of a compound's ability to directly modulate activity at the 5-HT1A receptor.

[3] = target: T2, Human 5-HT1A Receptor; experiment: cAMP radioimmunoassay (RIA) in human 5-HT1A receptor cell line, inhibition of forskolin stimulated cAMP; assay type: cell-based; settings: forskolin (1 μM) stimulated cAMP, stably transfected CHO cells; read-out: h5HT1A cAMP EC50 (nM) (Example 19)
Description: Certain effects of 5-HT (e.g., certain effects mediated by the interaction of 5-HT with the 5-HT1A receptor) are mediated by cAMP. To test the ability of compounds described herein to modulate cAMP, a radioimmunoassay (RIA) method was used. Briefly, stably transfected CHO cells were grown in DMEM containing 10% heat inactivated FBS and non-essential amino acids. The cells were plated at a density of 10^6 cells per well in a 96-well plate and incubated for 2 days in a CO2 incubator. On the second day, the medium was replaced with 0.1 ml Krebs and incubated 15 minutes at 37° C. The medium was then replaced with Krebs buffer containing 500 μM isobutylmethylxanthine (IBMX) and incubated for approximately 5 minutes at 37° C. Wells were treated with forskolin (1 μM final concentration) followed immediately by test compound (0.1 and 1 μM for the initial screen) and incubated for an additional 10 minutes at 37° C. The reaction was terminated by removal of the medium and the addition of 0.5 ml ice cold assay buffer (supplied in the RIA kit). Plates were stored at −20° C. prior to assessment of cAMP formation by RIA. The cAMP kit was obtained from Amersham (Piscataway, N.J.) and the RIA was performed as per the kit instructions. In the initial screen, percent inhibition of forskolin stimulated cAMP was measured. […] These compounds behaved as either full agonists or partial agonists. 5-HT, BMY 7378, buspirone, and 8-OH-DPAT were used as reference compounds.
All compounds tested inhibited the forskolin-stimulated increase in […].

[4] = target: T3, serotonin transporter (Rattus norvegicus, UniProt P31652); experiment: 3H-paroxetine binding to rat frontal cortical membranes, affinity for the serotonin transporter; settings: 3H-paroxetine 0.1 nM, male Sprague Dawley rat frontal cortical membranes; read-out: 5HT Uptake r5HT-T Ki (nM) (Example 18)
T3 construct: frontal cortical membranes prepared from male Sprague Dawley rats; from tissue; host or cells: rat frontal cortex membranes (male Sprague Dawley)
T3 sequence (P31652 whole entry): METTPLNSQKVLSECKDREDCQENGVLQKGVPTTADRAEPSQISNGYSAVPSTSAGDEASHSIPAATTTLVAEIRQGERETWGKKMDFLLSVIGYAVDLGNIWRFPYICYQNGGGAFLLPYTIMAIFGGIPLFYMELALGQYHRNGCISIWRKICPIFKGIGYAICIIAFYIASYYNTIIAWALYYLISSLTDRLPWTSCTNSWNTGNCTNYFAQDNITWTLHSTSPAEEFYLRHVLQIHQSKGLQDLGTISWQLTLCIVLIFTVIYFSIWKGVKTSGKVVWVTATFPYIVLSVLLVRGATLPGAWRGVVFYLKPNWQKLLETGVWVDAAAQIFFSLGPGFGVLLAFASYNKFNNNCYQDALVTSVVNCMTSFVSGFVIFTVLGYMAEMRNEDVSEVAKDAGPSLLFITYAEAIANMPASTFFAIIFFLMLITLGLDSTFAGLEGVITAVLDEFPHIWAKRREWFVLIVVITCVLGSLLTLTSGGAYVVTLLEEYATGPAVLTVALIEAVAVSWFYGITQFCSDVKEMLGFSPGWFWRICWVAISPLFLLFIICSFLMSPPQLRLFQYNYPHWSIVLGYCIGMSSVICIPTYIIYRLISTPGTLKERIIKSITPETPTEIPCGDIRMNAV
Description: A protocol similar to that used by Cheetham et al. (Neuropharmacol. 32:737-743, 1993) was used to determine the affinity of compounds for the serotonin transporter (i.e., by determining the relative ability of a compound to displace ^3H-paroxetine from male rat frontal cortical membranes). Briefly, frontal cortical membranes prepared from male Sprague Dawley rats were incubated with ^3H-paroxetine (0.1 nM) for 60 minutes at 25° C. All tubes also contained either vehicle, test compound (one to eight concentrations), or a saturating concentration of fluoxetine (10 μM) to define […]. All reactions were terminated by the addition of ice cold Tris buffer followed by rapid filtration using a Tom Tech filtration device to separate bound from free ^3H-paroxetine. Bound radioactivity was quantitated using a Wallac 1205 Beta Plate® counter. Nonlinear regression analysis was used to determine IC50 values which were converted to Ki values using the method of Cheng and Prusoff (Biochem. Pharmacol. 22: 3099-3108, 1973); […].
This affinity translates to the blockade of 5-HT uptake, i.e., the ability of a compound increase synaptic 5-HT levels and to act like an SSRI.

Cc1ccc2c3c(ccc2n1)OC[C@H](CNCCCN1CCCc2ccc(F)cc21)O3 [Example 4, 3-(7-fluoro-3,4-dihydroquinolin-1(2H)-yl)-N-{[(2S)-8-methyl-2,3-dihydro[1,4]dioxino[2,3-f]quinolin-2-yl]methyl}propan-1-amine]
IC50 [1]: 32.9 nM | Ki [2]: 0.27 nM | EC50 [3]: 1.57 nM | Ki [4]: 7.7 nM
